Measurements taken from patent publication US20050080054A1, “Treating androgen decline in aging male (ADAM)-associated conditions with SARMS” (priority 2002, published 2005).
Values joined by “and” are separate entries in the source; they are usually repeats but may differ in a detail not shown here. Equal values may be shown once. “Also recorded” adds a separate entry of the source.

Columns and labels:
Assay type in all cases: in vivo, rat
[1] = Plasma FSH levels in male rats of varying hormonal status; settings: 0.5 mg/day; for Plasma FSH levels: 14 days, n = 5
Description: (§1) Compound VI and Compound VII were synthesized and characterized in the laboratory of Dr. Duane Miller at the University of Tennessee, Memphis, Tenn. Male Sprague-Dawley rats were purchased from Harlan Biosciences (Indianapolis, Ind.). The animals were maintained on a 12-h cycle of light and dark with food and water available ad libitum. All animal studies were reviewed and approved by the Animal Care and Use Committee of The Ohio State University, and conformed to the Principles of Laboratory Animal Care (NIH publication #85-23, revised 1985). Immature male Sprague-Dawley rats weighing 187 to 214 g were randomly distributed into 9 groups of 5 animals. One day before the initiation of drug treatment, groups 4 through 6 and groups 7 through 9 received unilateral or bilateral orchidectomy, respectively, via a midline scrotal incision. […] All drugs given to animals were freshly prepared as solutions in polyethylene glycol 300 (PEG 300). Groups 4 and 7 received treatment with vehicle alone (i.e., PEG 300). Animals in groups 3, 6, and 9 received testosterone propionate (TP, 0.5 mg/day) via implantation of subdermal osmotic pumps (Model 2002, Durect Corporation, Palo Alto, Calif.). Animals in groups 2, 5, and 8 received Compound VI or Compound VII (0.5 mg/day) via implantation of subdermal osmotic pumps. After 14 days of drug treatment, rats were weighed, anesthetized, and sacrificed. Blood samples were collected by venipuncture of the abdominal aorta. Plasma samples were analyzed for testosterone, FSH, LH and osteocalcin. Testosterone concentrations were measured by AniLytics Inc. (Gaithersburg, Md.). FSH and LH levels were measured by the National Hormone and Peptide Program (Dr. A F Parlow, UCLA, CA). Plasma osteocalcin levels were determined using a commercially available rat osteocalcin EIA kit from Biomedical Technologies Inc. (Stoughton, Mass.). The ventral prostates, seminal vesicles, and levator ani muscle were removed and weighed. Osmotic pumps were also removed from animals to check for correct pump operation. The weights of all organs were normalized to body weight, and analyzed for any statistically significant differences between groups using single-factor ANOVA with the alpha value set a priori at p<0.05. The weights of prostates and seminal vesicles were used as indices for evaluation of androgenic activity, and the levator ani muscle weight was used to evaluate the anabolic activity. Statistical analyses of parameters from complete blood count or serum chemical profiling, wherever applicable, were performed by single-factor ANOVA with the alpha value set a priori at p<0.05.

[2] = Plasma osteocalcin levels in male rats of varying hormonal status; settings: 0.5 mg/day; for Plasma osteocalcin levels: 14 days, n = 5
Description: as §1

[3] = test system: androgen-responsive tissues (prostate, seminal vesicles, levator ani muscle); assay: Androgenic and anabolic activity: weight of androgen-responsive tissues in intact, hemi-orchidectomized and castrated rats; settings: for Levator Ani weight / Prostate weight / Seminal Vesicle weight: n = 5
Procedure: FIG. 3: Androgenic and Anabolic activity of Compound VI and Compound VII in rats. Male rats with normal testicular function (no surgical manipulation) were left untreated (Intact), treated with compound VI (0.5 mg/day), compound VII (0.5 mg/day) or testosterone proprionate (TP, 0.5 mg/day), and the weight of androgen-responsive tissues (prostate—FIG. 3A, semimal vesicles—FIG. 3B, and levator ani muscle—FIG. 3C) was determined.
FIG. 4: Androgenic and Anabolic activity of Compound VI and Compound VII in rats. Male rats received unilateral orchidectomy (Hemi-orchidectomized) and were left untreated (Intact), treated with vehicle alone (PEG 300), Compound VI (0.5 mg/day), Compound VII (0.5 mg/day), or testosterone proprionate (TP, 0.5 mg/day), and the weight of androgen-responsive tissues (prostate—FIG. 4A, semimal vesicles—FIG. 4B, and levator ani muscle—FIG. 4C) was determined.
FIG. 5: Androgenic and Anabolic activity of Compound VI and Compound VII in rats. Male rats received bilateral orchidectomy (Castrated) and were left untreated (Intact), treated with vehicle alone (PEG 300), Compound VI (0.5 mg/day), Compound VII (0.5 mg/day), or testosterone proprionate (TP, 0.5 mg/day), and the weight of androgen-responsive tissues (prostate—FIG. 5A, semimal vesicles—FIG. 5B, and levator ani muscle—FIG. 5C) was determined.
as §1

[4] = test system: myosin heavy chain (MHC) IIb mRNA; assay: Myosin heavy chain (MHC) IIb mRNA expression in masseter muscle by RT-PCR; settings: masseter muscle of intact female rats; untreated control = 100%
Description: MHC is the predominant protein in skeletal muscle encoded by a multigene family expressed in a tissue-specific and developmentally regulated manner [Adams et al 1999]. In steady state, mRNA expression usually parallels the pattern of MHC protein expression. Because transcription of MHC mRNA occurs in advance of MHC protein translation, and the increased sensitivity of RT-PCR compared to western blotting, rapid changes in mRNA expression can be detected and used to analyze the subtle dynamic effects of muscle anabolism [Wright et al 1997].
The masseter muscle dissected from untreated intact female rats was set as the control level (representing 100%) of MHC IIb expression (FIG. 7A). Intact female rats treated with androgens were evaluated against the untreated controls for the effect of treatment on MHC IIb from masseter.

[5] = test system: female rats after ovariectomy; assay: Bone mineral content (DEXA) in female rats after ovariectomy
Procedure: One hundred ten female rats were assigned to one of eleven treatment groups. Groups 1-8 were ovariectomized on day one of the study. Groups 9-11 were intact animals. Groups 1-6 received Compound VI by daily subcutaneous injection at doses of 0.1, 0.3, 0.5, 0.75, 1.0, and 3 mg/day, respectively. Groups 7 and 11 received dihydrotestosterone (DHT) at a dose of 1 mg/day. Groups 8 and 9 were ovariectomized and intact control groups, respectively. Group 10 received Compound VI at a dose of 1.0 mg/day. All animals were treated for 120 days. Bone mineral content (BMC) was determined using dual energy x-ray absorptiometry (DEXA) on days 1, 30, 60, 90, and 120.

[6] = castrated rats, 0.5 mg/day, 14 days
[7] = hemi-orchidectomized animals, 0.5 mg/day
[8] = hemi-orchidectomized rats, 0.5 mg/day, 14 days
[9] = intact rats, 0.5 mg/day, 14 days

## CC(=O)Nc1ccc(OC[C@](C)(O)C(=O)Nc2ccc([N+](=O)[O-])c(C(F)(F)F)c2)cc1 [Compound VI]
[1]; TP statement for castrated male rats
  effect on plasma FSH levels: no effect
[1]; castrated male rats
  Plasma FSH levels: 69.6 ± 11.7 ng/mL
[1]; hemi-orchidectomized male rats
  Plasma FSH levels: 15.2 ± 2.2 ng/mL
[1]; intact male rats
  Plasma FSH levels: 14.4 ± 1.7 ng/mL
[2]; Compound VI statement for hemi-orchidectomized and castrated animals
  effect on plasma osteocalcin levels: significant increase
[2]; castrated male rats
  Plasma osteocalcin levels: 94.215 ± 12.568 ng/mL
[2]; hemi-orchidectomized male rats
  Plasma osteocalcin levels: 89.804 ± 15.517 ng/mL
[2]; intact male rats
  Plasma osteocalcin levels: 55.584 ± 9.715 ng/mL
[3]; castrated animals
  increasing the weight of the prostate, compared with TP: less effective than TP
[3]; [6]
  Levator Ani weight: 100.65 % of intact control
  Prostate weight: 32.55 % of intact control
  Seminal Vesicle weight: 16.47 % of intact control
[3]; from organ weights in rats
  agonist character in levator ani muscle: full agonist
  agonist character in prostate and seminal vesicles: partial agonist
[3]; hemi-orchidectomized and castrated animals
  effect on weight of the levator ani muscle: significant increases
[3]; [7]
  size of the levator ani muscle, of that observed in untreated hemi-orchidectomized animals: 108%
  size of the prostate, of that observed in untreated hemi-orchidectomized animals: 75%
  size of the seminal vesicles, of that observed in untreated hemi-orchidectomized animals: 79%
[3]; [8]
  Levator Ani weight: 108.10 % of intact control
  Prostate weight: 74.69 % of intact control
  Seminal Vesicle weight: 78.55 % of intact control
[3]; intact and hemi-orchidectomized animals
  effect on prostate weights: significant decreases in prostate weights
[3]; intact animals, 0.5 mg/day
  change in size of levator ani muscle: no statistically significant changes
  change in size/weight of the seminal vesicles: no statistically significant changes; also recorded: no effect
[3]; [9]
  Levator Ani weight: 109.15 % of intact control
  Prostate weight: 79 % of intact control and 79.41 % of intact control
  Seminal Vesicle weight: 90.54 % of intact control
[3]; male rats, 0.5 mg/day, 14 days
  adverse pharmacologic effects: No adverse pharmacologic effects were observed
[4]
  MHC type IIb transcription, of untreated control: 137%
[5]; FIG. 9
  whole body BMC: increased whole body BMC in a dose-dependent and time-dependent manner
[5]; FIG. 10
  effect at L2-L4 vertebra and proximal femur: protective effect
[5]; ovariectomized female rat bone model
  potency comparison Compound VI versus DHT: more potent than DHT
[5]; ovariectomized female rats, 120 days
  bone resorption: inhibited bone resorption
[5]; ovariectomized female rats, 0.1 mg/day s.c. daily, treated for 120 days (group 1)
  increase in BMC: 22.9%
[5]; ovariectomized female rats, 0.3 mg/day s.c. daily, treated for 120 days (group 2)
  increase in BMC: 26.0%
[5]; ovariectomized female rats, 0.5 mg/day s.c. daily, treated for 120 days (group 3)
  increase in BMC: 28.5%
[5]; ovariectomized female rats, 0.75 mg/day s.c. daily, treated for 120 days (group 4)
  increase in BMC: 30.5%
[5]; ovariectomized female rats, 1.0 mg/day, treated for 120 days (group 5; DHT 1 mg/day)
  increase in BMC: 30.0%
[5]; ovariectomized female rats, 3 mg/day s.c. daily, treated for 120 days (group 6)
  increase in BMC: 40.1%
